According to publication PMC10726355, “Small Molecule Ligands of the BET-like Bromodomain, SmBRD3, Affect Schistosoma mansoni Survival, Oviposition, and Development” (Journal of Medicinal Chemistry, 2023):
Values after ≈ are worked out from the molar mass of the structure shown. “Also recorded” adds a separate entry of the source. Like-named read-outs stand apart in the source and are kept apart here.

Key:
SmBRD3(2) = SmBRD3(2) (Schistosoma mansoni, UniProt A0A5K4ESD7); assay: biochemical; format: binding; conditions: for N number, binding to SmBRD3(2), Repeat 1 / N number, binding to SmBRD3(2), Repeat 2 / N number, binding to SmBRD3(2), Repeat 3 / N number, binding to SmBRD3(2), Mean: ITC stoichiometry; for N number, binding to SmBRD3(2), Mean: mean of repeats
chromLogD assay = format: physicochemical; conditions: reversed phase HPLC column (Gemini NX C18), pH 7.4
Method: Lipophilicity: a chromLogD assay was carried out by the Physchem Team, Discovery Analytical, NCE Molecular Discovery at GSK. The chromatographic hydrophobicity index (CHI)[46],[47] values were measured using reversed phase HPLC column (50 × 2 mm […] Gemini NX C18, Phenomenex, UK) with fast acetonitrile gradient at starting mobile phase of pHs 2, 7.4, or 10.5. CHI values were derived directly from the gradient retention times using calibration parameters for standard compounds. The CHI value approximates to the volume % organic concentration when the compound elutes. CHI was linearly transformed into a chromLogD[48] value by least-squares fitting of experimental CHI values to calculated cLogP values for over 20000 research compounds.

CAD solubility assay = format: physicochemical; conditions: phosphate buffered saline, pH 7.4, phosphate buffered saline at pH 7.4; read-out: Aqueous Solubility by CAD
Method: A CAD solubility assay was carried out by Physchem Team, Discovery Analytical, NCE Molecular Discovery at GSK. 5 μL of 10 mM DMSO stock solution was diluted to 100 μL with pH 7.4 phosphate buffered saline, equilibrated for 1 h at room temperature, and filtered through Millipore MultiscreenHTS-PCF filter plates (MSSL BPC). The filtrate was quantified using a suitably calibrated charged aerosol detector.[45]

HsBRD4(1) = biological target: T1, HsBRD4(1) (Homo sapiens, UniProt O60885); assay: Isothermal titration calorimetry (ITC), HsBRD4(1); format: binding; conditions: single value ± error of the curve fit
T1 construct: HsBRD4(1) Kd (ITC, nM); made in house; host or cells: E. coli BL21(DE3)

SmBRD3(1,2) [1] = biological target: SmBRD3(1,2) (Schistosoma mansoni, UniProt A0A5K4ESD7); assay: biochemical; format: binding; conditions: for N number, binding to SmBRD3(1,2): ITC stoichiometry, n=1 ± error of curve fit
adult male S. mansoni = assay: Determination of compound parasite permeability (LCMS of worm lysate); format: in vitro ADME, Schistosoma mansoni; conditions: worms treated with 20 μM of the same compound for 24 h; LCMS
S. mansoni miracidia = assay: Ex vivo miracidia to sporocyst transformation screening; set-up: species or system Schistosoma mansoni; conditions: 0.5-25 μM in 1% DMSO, 48 h
Method: S. mansoni miracidia were obtained by hatching of schistosome eggs as previously described.[73] The resulting miracidial suspension was collected, washed with Chernin’s balanced salt solution (CBSS),[73] and enumerated prior to being used for ex vivo miracidia to sporocyst screens as previously reported.[66],[73] Each compound was tested at 0.5, 2.0, 5.0, 10, and 25 μM final concentrations (in 1% DMSO). Each treatment was set up in duplicate (15–25 miracidia/well). Each titration was performed in three independent experiments (two technical replicates per data point). Parasites cultured in CBSS (containing 1% DMSO) were included as negative controls. After 48 h incubation at 26 °C in the dark, dead, fully transformed and partially transformed miracidia were enumerated as previously described.[74],[75]

S. mansoni adult worms = assay: Ex vivo adult worm screening (motility, IVLEs, pairing); set-up: species or system Schistosoma mansoni; conditions: 72 h
Method: S. mansoni adult worms were recovered by hepatic portal vein perfusion from TO mice (Mus musculus HsdOLa:TO - Tuck Ordinary; Envigo, UK) that were percutaneously infected 7 weeks earlier with 180 cercariae.[65],[71] Following perfusion, schistosomes were washed and processed as previously described.[65],[66] Subsequently, schistosome pairs were seeded into 48 well tissue culture plates (1 worm pair/well, in duplicate) and dosed with the compounds (20 μM in 0.2% DMSO). DMSO (0.2%) and praziquantel (10 μM in 0.1% DMSO) were also included as negative and positive controls, respectively. Parasite motility was assessed by a digital image processing-based system (WormassayGP2),[66] modified after Wormassay.[72]In vitro laid eggs (IVLEs) were enumerated and the presence or absence of paired worms was noted.

S. mansoni schistosomula = assay: Ex vivo schistosomula screening (Roboworm high content imaging); set-up: species or system Schistosoma mansoni; conditions: 20 μM (Figure 7) or 10 μM (Figure S48); 72 h
Method: A high-throughput imaging platform that quantifies both phenotype and motility ex vivo, was used to screen compounds against schistosomula; their effects were assessed as previously described.[20] Briefly, the schistosomula stage of S. mansoni was obtained by mechanical transformation of cercariae, dispensed into 384-well tissue culture plates, and dosed with 20 μM (Figure 7) or 10 μM (Figure S48) of each compound. Following 72 h coincubation of the schistosomula and compound, the plate was subjected to high content imaging to quantify the effects of each compound.
S. mansoni schistosomula were obtained by mechanical transformation from cercariae as previously described,[64] distributed in 384-well tissue culture plates (PerkinElmer, catalogue number 6007460) at 120 parasites/well and dosed with the selected compounds as previously reported.[65]−[68] For this study, each compound (as 10 mM DMSO stock solution) was initially tested at two concentration points (20 and 10 μM final concentration, in duplicates) in at least four independent screens (Z′ scores above 0.35).[69] Each screen contained both positive (10 μM auranofin (AUR) in 0.625% DMSO) and negative (0.625% DMSO) controls. […] Following 72 h schistosomula/compound coincubation, the plate was analyzed by the Roboworm platform.[70] EC50 values were calculated from the titrated concentrations by nonlinear regression, after log transformation of concentrations and data normalization using GraphPad Prism 7.02.

SmBRD3(1,2) [2] = assay: Differential scanning fluorimetry (thermal shift), SmBRD3(1,2); conditions: DSF; 50 μM compound
Method: Reported ΔTm values are the mean of two replicates.
The differential scanning fluorimetry (DSF) or thermal stability assays were carried out following the protocol described by Niesen et al. and data were analysed as described previously.8 Thermal melting experiments were carried out using the Mx3005p real-time PCR machine (Agilent) and employing a protein concentration of 5 μM for the schistosomal bromodomains [SmBRD3(2),
the DMSO content was 0.5% (v/v). Buffer conditions were 50 mM HEPES buffer, pH 7.5, 500 mM NaCl and a 1:500 dilution of SYPRO® Orange (Invitrogen, CA) was used. The 96-well PCR plates were sealed and centrifuged for 2 min at 1000 rpm at 25 °C before measurement. The temperature was raised with a step of 1 °C per 30 s from 25 °C to 85 °C, and fluorescence readings were taken
difference between the transition midpoints of sample and reference wells containing protein without inhibitor in the same plate. Reported ΔTm values are the mean of two replicates.
Isothermal titration calorimetry experiments were performed on a MicroCal PEAQ-ITC Automated or Manual (Malvern) and analysed with the MicroCal PEAQ-ITC Analysis software (Malvern 1.1.0.1262) using a single binding site model. For each experiment, the first data point was removed from the analysis. The proteins were dialysed at 4 °C overnight in a Slide-A-LyzerR MINI Dialysis Device (2000 MWCO; Thermo Scientific Life Technologies) into 50 mM HEPES, 150 mM NaCl containing 0.2% DMSO; pH 7.4. Proteins were centrifuged to remove aggregates (3 min, 3000 rpm, 25 °C).
Compounds were dissolved as a DMSO stock solution and diluted to the required concentration using dialysis buffer (DMSO free) and to a final DMSO concentration of 0.2% (unless otherwise specified). The cell was stirred at 750 rpm, reference power set to 5 μcal/s and temperature held at 25 °C. After an initial delay of 60 s, 19 x 2 μL injections (first injection 0.4 μL) were performed with a spacing of 180 s. […]

[3] = ITC, read-out: SmBRD3(2) pKd (converted)
[4] = ITC, single run ± error of curve fit, Repeat 1, read-out: SmBRD3(2) Kd, Repeat 1
[5] = ITC, single run ± error of curve fit, Repeat 2, read-out: SmBRD3(2) Kd, Repeat 2
[6] = ITC, single run ± error of curve fit, Repeat 3, read-out: SmBRD3(2) Kd, Repeat 3

| Compound | N number, binding to SmBRD3(2), Repeat 1 (SmBRD3(2); Repeat 1) | N number, binding to SmBRD3(2), Repeat 2 (SmBRD3(2); Repeat 2) | N number, binding to SmBRD3(2), Repeat 3 (SmBRD3(2); Repeat 3) | N number, binding to SmBRD3(2), Mean (SmBRD3(2)) | Kd (SmBRD3(2); [3]) [nM] | Kd (SmBRD3(2); [5]) [nM] | Kd (SmBRD3(2); [6]) [nM] | Kd (SmBRD3(2); read-out: SmBRD3(2) Kd) [nM] | chromatographic logD (chromLogD assay) | solubility at 1 h (CAD solubility assay) [µM] | SmBRD3(2) Kd (SmBRD3(2)) | SmBRD3(2) Kd, Repeat 1 (SmBRD3(2)) | also measured |
| --- | --- | --- | --- | --- | --- | --- | --- | --- | --- | --- | --- | --- | --- |
| CC(=O)N1c2ccc(-c3ccc(C(=O)O)cc3)cc2[C@H](Nc2ccc3ccsc3c2)C[C@@H]1C [Compound 9, 4-{(2S,4R)-1-Acetyl-4-[(1-benzothiophen-6-yl)amino]-2-methyl-1,2,3,4-tetrahydroquinolin-6-yl}benzoic Acid] | 1.52 ± 2.2e-2 | 1.57 ± 3.4e-2 | 1.64 ± 3.3e-2 | 1.58 | 631 | 778 ± 179 | 753 ± 176 | 701 ± 64.9 | 2.83 | ≥ 259 | – | – | Kd (SmBRD3(2); [4]): 572 ± 103 nM; HsBRD4(1) Kd (ITC) (HsBRD4(1)): high affinity; Kd (HsBRD4(1)): 64.4 ± 20.7 nM |
| CC(=O)N1c2ccc(-c3ccc(C(=O)O)cc3)cc2[C@@H](Nc2ccc3ccsc3c2)C[C@H]1C [Compound 10, 4-{(2R,4S)-1-Acetyl-4-[(1-benzothiophen-6-yl)amino]-2-methyl-1,2,3,4-tetrahydroquinolin-6-yl}benzoic Acid] | – | – | – | – | – | – | – | – | 2.83 | > 259 | No detectable binding; also recorded: does not bind | No binding | SmBRD3(1,2) Kd (SmBRD3(1,2) [1]; ITC, n = 1 ± error of the curve fit): No detectable binding |
| CC(=O)N1c2ccc(-c3ccc(C(=O)O)cc3)cc2[C@H](Nc2ccc3ncsc3c2)C[C@@H]1C [Compound 14, 4-{(2S,4R)-1-Acetyl-4-[(1,3-benzothiazol-6-yl)amino]-2-methyl-1,2,3,4-tetrahydroquinolin-6-yl}benzoic acid] | 1.42 ± 2.4e-2 | 1.54 ± 0.101 | 1.49 ± 5.4e-2 | 1.48 | 1260 | 1270 ± 779 | 1270 ± 349 | 1180 ± 86.7 | 1.78 | ≥ 260 | – | – | Kd (SmBRD3(2); [4]): 1010 ± 160 nM |
| CC(=O)N1c2ccc(-c3ccc(C(=O)O)cc3)cc2[C@H](Nc2ccc3ncccc3c2)C[C@@H]1C [Compound 15, 4-{(2S,4R)-1-Acetyl-2-methyl-4-[(quinolin-6-yl)amino]-1,2,3,4-tetrahydroquinolin-6-yl}benzoic Acid] | 1.48 ± 2.5e-2 | 1.51 ± 2.0e-2 | 1.69 ± 1.8e-2 | 1.56 | 398 | 361 ± 70.2 | 411 ± 60.4 | 364 ± 26.3 | – | – | – | – | Kd (SmBRD3(2); read-out: SmBRD3(2) Kd, Repeat 1): 320 ± 82.8 nM; Quantity of compound found in lysed adult worms (adult male S. mansoni): lower quantities; HsBRD4(1) Kd (ITC) (HsBRD4(1)): high affinity; Kd (HsBRD4(1)): 13.5 ± 2.47 nM |
| CCOC(=O)c1ccc(-c2ccc3c(c2)[C@@H](Nc2ccc4ccsc4c2)C[C@@H](C)N3C(C)=O)cc1 [Compound 17, Ethyl 4-{(2R,4S)-1-Acetyl-4-[(1-benzothiophen-6-yl)amino]-2-methyl-1,2,3,4-tetrahydroquinolin-6-yl}benzoate] | – | – | – | – | – | – | – | – | 7.61 | 1 (≈ 0.485 µg/mL) | No binding | No binding | Toxicity to miracidia (dead parasites) (S. mansoni miracidia): toxic at the higher concentrations; Effect on adult worm movement (S. mansoni adult worms; 20 μM in 0.2% DMSO): some modest effects; Effect on egg count (in vitro laid eggs) (S. mansoni adult worms; 20 μM): some modest effects; Effect on schistosomula motility (S. mansoni schistosomula): did not have substantial effects; Effect on schistosomula phenotype (S. mansoni schistosomula): did not have substantial effects |
| Cc1noc(C)c1-c1cc(O)cc(C(O)c2ccccc2)c1 (centres unmarked) [OXFBD02 (1), OXFBD02, reference compound] | – | – | – | – | – | – | – | – | – | – | – | – | Thermal stabilisation (ΔTm) of SmBRD3(1,2) (SmBRD3(1,2) [2]): stabilize SmBRD3(1,2); SmBRD3(2) Kd, Repeat 1 (SmBRD3(2); ITC, single run ± error of curve fit, Repeat 1): No binding; SmBRD3(2) Kd (SmBRD3(2); ITC, single value ± error of the curve fit or mean of 2-3 repeats ± s.e.m.): no binding detected; also recorded: No detectable binding; Effect on miracidia to sporocyst transformation (S. mansoni miracidia; 26 °C): modest effects; N number, binding to SmBRD3(1,2) (SmBRD3(1,2) [1]): 1.61 ± 3.3e-2; Kd (SmBRD3(1,2) [1]; SmBRD3(1,2) Kd, ITC, n = 1 ± error of the curve fit): 683 ± 166 nM; Kd (SmBRD3(1,2) [1]; SmBRD3(1,2) pKd, ITC): 631 nM |
| (+)-JQ1 [(+)-JQ1 (5), reference compound] | – | – | – | – | – | – | – | – | – | – | no binding detected; also recorded: No detectable binding | No binding | Thermal stabilisation (ΔTm) of SmBRD3(1,2) (SmBRD3(1,2) [2]): stabilize SmBRD3(1,2); Toxicity to miracidia (dead parasites) (S. mansoni miracidia): toxic at the higher concentrations; Effect on schistosomula phenotype (S. mansoni schistosomula): showed activity; SmBRD3(1,2) pKd (SmBRD3(1,2) [1]; ITC): 6.4; N number, binding to SmBRD3(1,2) (SmBRD3(1,2) [1]): 3.87 ± 7.0 e-2; Kd (SmBRD3(1,2) [1]; ITC, n = 1 ± error of the curve fit, read-out: SmBRD3(1,2) Kd): 445 ± 106 nM |
